System: 287954-098-R-J1 tumor spheroid viability
Experiment: Anticancer human tumor 287954-098-R-J1 patient-derived Ewing sarcoma cell line growth inhibition
Conditions: spheroids with HUVEC and MSC; for viability, T/C: stronger effect = lower value
Procedure, shortened: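 Single agents and combinations were tested on spheroids built from tumor cells plus HUVEC and hMSC, at half-log dilutions starting at or near clinical Cmax, else 10 microM; final DMSO 0.25% (v/v).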
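Note: spheroids exposed to compound for 7 days before viability readout.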
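Throughout, for viability, T/C: luminescent signal taken as surrogate of viable cell content; 100% = DMSO vehicle control viability and lower means growth inhibition.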

## CC[C@@]1(O)C(=O)OCc2c1cc1n(c2=O)Cc2cc3c(CN(C)C)c(O)ccc3nc2-1
Compound 0.003 µM
  viability, T/C: 104% [middle of 10 runs]
Compound 0.00949 µM
  viability, T/C: 101% [middle of 10 runs]
Compound 0.03 µM
  viability, T/C: 15.2% [middle of 10 runs]
Compound 0.0949 µM
  viability, T/C: 1.9% [middle of 9 runs]
Compound 0.3 µM
  viability, T/C: 1.83% [middle of 10 runs]
Compound alone, run of 10/17/2019
  IC50: 19.4 nM [middle of 5 runs]
Compound alone, run of 10/25/2019
  IC50: 18.8 nM [middle of 4 runs]

## CNCc1ccc(-c2cc(-c3nc(-c4ccc(S(=O)(=O)C(C)C)cc4)cnc3N)on2)cc1 + CC[C@@]1(O)C(=O)OCc2c1cc1n(c2=O)Cc2cc3c(CN(C)C)c(O)ccc3nc2-1
Curve of first compound, second compound 0.003 µM
  IC50: 198 nM
Curve of first compound, second compound 0.00949 µM
  IC50: 158 nM
Curve of first compound, second compound 0.03 µM
  IC50: < 9.49 nM
Curve of first compound, second compound 0.0949 µM
  IC50: < 9.49 nM
Curve of first compound, second compound 0.3 µM
  IC50: < 9.49 nM
Second compound 0.003 µM, first compound 0.00949 µM
  viability, T/C: 109%
Second compound 0.003 µM, first compound 0.03 µM
  viability, T/C: 93.4%
Second compound 0.003 µM, first compound 0.0949 µM
  viability, T/C: 108%
Second compound 0.003 µM, first compound 0.3 µM
  viability, T/C: 19.7%
Second compound 0.003 µM, first compound 0.949 µM
  viability, T/C: 0.19%
Second compound 0.003 µM, first compound 3 µM
  viability, T/C: 0.31%
Second compound 0.00949 µM, first compound 0.00949 µM
  viability, T/C: 103%
Second compound 0.00949 µM, first compound 0.03 µM
  viability, T/C: 114%
Second compound 0.00949 µM, first compound 0.0949 µM
  viability, T/C: 89.3%
Second compound 0.00949 µM, first compound 0.3 µM
  viability, T/C: 0.67%
Second compound 0.00949 µM, first compound 0.949 µM
  viability, T/C: 0.1%
Second compound 0.00949 µM, first compound 3 µM
  viability, T/C: 0.26%
Second compound 0.03 µM, first compound 0.00949 µM
  viability, T/C: 19.1%
Second compound 0.03 µM, first compound 0.03 µM
  viability, T/C: 3.38%
Second compound 0.03 µM, first compound 0.0949 µM
  viability, T/C: 2.05%
Second compound 0.03 µM, first compound 0.3 µM
  viability, T/C: 0.64%
Second compound 0.03 µM, first compound 0.949 µM
  viability, T/C: 0.05%
Second compound 0.03 µM, first compound 3 µM
  viability, T/C: 0.26%
Second compound 0.0949 µM, first compound 0.00949 µM
  viability, T/C: 2.1%
Second compound 0.0949 µM, first compound 0.03 µM
  viability, T/C: 2.08%
Second compound 0.0949 µM, first compound 0.0949 µM
  viability, T/C: 2.28%
Second compound 0.0949 µM, first compound 0.3 µM
  viability, T/C: 0.97%
Second compound 0.0949 µM, first compound 0.949 µM
  viability, T/C: 0.06%
Second compound 0.0949 µM, first compound 3 µM
  viability, T/C: 0.3%
Second compound 0.3 µM, first compound 0.00949 µM
  viability, T/C: 2.14%
Second compound 0.3 µM, first compound 0.03 µM
  viability, T/C: 2.11%
Second compound 0.3 µM, first compound 0.0949 µM
  viability, T/C: 2.27%
Second compound 0.3 µM, first compound 0.3 µM
  viability, T/C: 1.94%
Second compound 0.3 µM, first compound 0.949 µM
  viability, T/C: 0.24%
Second compound 0.3 µM, first compound 3 µM
  viability, T/C: 0.43%

## Cn1ncnc1[C@H]1c2n[nH]c(=O)c3cc(F)cc(c23)N[C@@H]1c1ccc(F)cc1 + Cn1nnc2c(C(N)=O)ncn2c1=O
Curve of first compound, second compound 1 µM
  IC50: 544 nM
Curve of first compound, second compound 3.16 µM
  IC50: 543 nM
Curve of first compound, second compound 10 µM
  IC50: 506 nM
Curve of first compound, second compound 31.6 µM
  IC50: 57 nM
Curve of first compound, second compound 100 µM
  IC50: < 9.49 nM
Second compound 1 µM, first compound 0.00949 µM
  viability, T/C: 111%
Second compound 1 µM, first compound 0.03 µM
  viability, T/C: 106%
Second compound 1 µM, first compound 0.0949 µM
  viability, T/C: 104%
Second compound 1 µM, first compound 0.3 µM
  viability, T/C: 94.7%
Second compound 1 µM, first compound 0.949 µM
  viability, T/C: 8.18%
Second compound 1 µM, first compound 3 µM
  viability, T/C: 2.42%
Second compound 3.16 µM, first compound 0.00949 µM
  viability, T/C: 112%
Second compound 3.16 µM, first compound 0.03 µM
  viability, T/C: 106%
Second compound 3.16 µM, first compound 0.0949 µM
  viability, T/C: 106%
Second compound 3.16 µM, first compound 0.3 µM
  viability, T/C: 99.2%
Second compound 3.16 µM, first compound 0.949 µM
  viability, T/C: 3.64%
Second compound 3.16 µM, first compound 3 µM
  viability, T/C: 2.29%
Second compound 10 µM, first compound 0.00949 µM
  viability, T/C: 102%
Second compound 10 µM, first compound 0.03 µM
  viability, T/C: 106%
Second compound 10 µM, first compound 0.0949 µM
  viability, T/C: 104%
Second compound 10 µM, first compound 0.3 µM
  viability, T/C: 89.2%
Second compound 10 µM, first compound 0.949 µM
  viability, T/C: 2.82%
Second compound 10 µM, first compound 3 µM
  viability, T/C: 2.58%
Second compound 31.6 µM, first compound 0.00949 µM
  viability, T/C: 104%
Second compound 31.6 µM, first compound 0.03 µM
  viability, T/C: 90.6%
Second compound 31.6 µM, first compound 0.0949 µM
  viability, T/C: 17.9%
Second compound 31.6 µM, first compound 0.3 µM
  viability, T/C: 2.5%
Second compound 31.6 µM, first compound 0.949 µM
  viability, T/C: 2.34%
Second compound 31.6 µM, first compound 3 µM
  viability, T/C: 2.04%
Second compound 100 µM, first compound 0.00949 µM
  viability, T/C: 3.4%
Second compound 100 µM, first compound 0.03 µM
  viability, T/C: 2.77%
Second compound 100 µM, first compound 0.0949 µM
  viability, T/C: 2.49%
Second compound 100 µM, first compound 0.3 µM
  viability, T/C: 2.57%
Second compound 100 µM, first compound 0.949 µM
  viability, T/C: 2.68%
Second compound 100 µM, first compound 3 µM
  viability, T/C: 2.3%
